This is an account of results in patent US9713651B2, “Compositions, methods, and systems for the synthesis and use of imaging agents” (Lantheus Medical Imaging, Inc., priority 2012, dated 2017).

In series [1] the test system is hepatocytes. Briefly: Metabolic profiling of imaging agents in cryopreserved hepatocytes (HPLC with radiodetection). Format: in vitro ADME. The conditions noted are these: hepatocytes 1×10^6 cells/mL, 37° C./5% CO2; species and incubation time not given. The protocol:
Cryopreserved hepatocytes were purchased from Celsis/In Vitro Technologies, Inc. (Baltimore, Md.) and stored at −150° C. prior to use. Multiple lots of hepatocytes for human (mixed sexes 5-donor pool), primate (male, rhesus monkey), dog (male, beagle), rabbit (male, New Zealand white) and rat (male, Sprague-Dawley) were used. On the day of the study, hepatocytes in cryopreserved vials were vented to release any liquid N2 then placed into a 37° C. water bath for 75-90 seconds to thaw. The hepatocytes were transferred into pre-warmed KHB and centrifuged for 5 min at 50×g. The supernatant was discarded and the hepatocytes re-suspended in KHB at a concentration of 1×10^6 cells/mL. Cell viability was confirmed by Trypan blue exclusion.
Test compounds were incubated in hepatocytes (1×10^6 cells/mL; 0.5 mL) were incubated for 0, 15, 30, 60 or 180 min at 37° C./5% CO2 then transferred directly into acetonitrile (1.0 mL), vortexed for 30 s and centrifuged at 2500×g for 20 min. The supernatant was then transferred to a new centrifuge tube, acetonitrile evaporated under a stream of nitrogen in a heating block at 37° C. and, following re-constitution in water, assayed by HPLC with radiodetection.
Extracted samples and standards were analyzed on an Agilent 1100 HPLC (Agilent Technologies, Burlington, Mass.) using a Phenomenex Luna C18 column (5μ; 4.6×150 mm), maintained at ambient temperature (25° C.), and a flow rate of 1.0 mL/min. Mobile phase A contained 0.1% formic acid in water, and mobile phase B contained 0.1% formic acid in acetonitrile. A linear gradient from 5 to 90% B over 15 min was used for elution. A 5 min post-time of 5% B was used to re-equilibrate the column. Radioactive products were recorded using in-line γ- or β-flow detectors (INUS, Tampa, Fla.).

A short description of series [2]: Tissue distribution of 18F imaging agents in rats. Format: in vivo, Male Sprague Dawley rats. The conditions noted are these: rat, iv tail vein ~15 μCi, ± SEM; for Blood, imaging agent distribution at 15 min / Brain, imaging agent distribution at 15 min / Femur, imaging agent distribution at 15 min / Heart, imaging agent distribution at 15 min / Kidney, imaging agent distribution at 15 min / Liver, imaging agent distribution at 15 min / Lung, imaging agent distribution at 15 min / Muscle, imaging agent distribution at 15 min / Pancreas, imaging agent distribution at 15 min / Spleen, imaging agent distribution at 15 min: 15 min post injection; for Blood, imaging agent distribution at 60 min / Brain, imaging agent distribution at 60 min / Femur, imaging agent distribution at 60 min / Heart, imaging agent distribution at 60 min / Kidney, imaging agent distribution at 60 min / Liver, imaging agent distribution at 60 min / Lung, imaging agent distribution at 60 min / Muscle, imaging agent distribution at 60 min / Pancreas, imaging agent distribution at 60 min / Spleen, imaging agent distribution at 60 min: 60 min post injection. The procedure: Anesthetized (sodium pentobarbital at 50 mg/kg, ip or isoflurane gas inhalation) Male Sprague Dawley rats (250-350 g) received an iv injection of the imaging agent (˜15 μCi) via the tail vein. At 15 or 60 min post injection, the animals were euthanized and the required tissue samples harvested. All samples were then weighed and counted for radioactivity (Wallac Wizard 1480 or Packard Cobra II Autogamma); regional tissue uptake of the imaging agent was thus expressed as a percentage of the total injected dose per gram of tissue (% ID/g).
The generic structure depicted below highlights specific structural features evaluated during distribution experiments.

Take `CC(C)(C)n1ncc(OCc2ccc([Si](F)(C(C)(C)C)C(C)(C)C)cc2)c(Cl)c1=O` [Example 62B, 2-(tert-butyl)-4-chloro-5-((4-(di-tert-butylfluorosilyl)benzyl)oxy)pyridazin-3 (2H)-one]: in series [1], the “% Parent Remaining” value was 98%.

Take `[2H]C([2H])(OCCF)c1ccc(COc2cnn(C(C)(C)C)c(=O)c2Cl)cc1` [Example 9, 2-(tert-butyl)-4-chloro-5-((4-((2-fluoroethoxy)-d2-methyl)benzyl)oxy)pyridazin-3(2H)-one]: in series [1], the “% Parent Remaining” value was 73%.

For `CC(C)(C)n1ncc(OCc2ccc(C#CCCF)cc2)c(Cl)c1=O` [Example 43, 2-(tert-butyl)-4-chloro-5-((4-(4-fluorobut-1-yn-1-yl)benzyl)oxy)pyridazin-3(2H)-one], the “% Parent Remaining” value in series [1] is 63%.

As for `CC(C)(C)n1ncc(OCc2ccc(-c3cnc(F)nc3)cc2)c(Cl)c1=O` [Example 48C, 2-(tert-butyl)-4-chloro-5-((4-(2-fluoropyrimidin-5-yl)benzyl)oxy)pyridazin-3(2H)-one], the “% Parent Remaining” value in series [1] is listed as 95%.

On to `CC(C)n1ncc(OCc2ccc(COCCF)cc2)c(Cl)c1=O` [Example 1, 4-chloro-5-((4-((2-fluoroethoxy)methyl)benzyl)oxy)-2-isopropylpyridazin-3(2H)-one], for which the “% Parent Remaining” value in series [1] is 20%.

In the case of `CC(C)(C)n1ncc(OCc2ccc(C(=O)OCCCF)cc2)c(Cl)c1=O` [Example 57B, 3-fluoropropyl 4-(((1-(tert-butyl)-5-chloro-6-oxo-1,6-dihydropyridazin-4-yl)oxy)methyl)benzoate], the “% Parent Remaining” value in series [1] is 31%.

Consider `CC(C)(C)n1ncc(OCc2cccc(COCCF)c2)c(Cl)c1=O` [Example 35, 2-(tert-butyl)-4-chloro-5-((3-((2-fluoroethoxy)methyl)benzyl)oxy)pyridazin-3(2H)-one], for which the “% Parent Remaining” value in series [1] amounted to 30%.

Regarding `CC(C)(C)n1ncc(CCc2ccc(COCCF)cc2)c(Cl)c1=O` [Example 61], the “% Parent Remaining” value in series [1] worked out at 6%.

As to `CC(C)(C)n1ncc(OCc2ccc(C(=O)OCCF)cc2)c(Cl)c1=O` [Example 45, 2-fluoroethyl 4-(((1-(tert-butyl)-5-chloro-6-oxo-1,6-dihydropyridazin-4-yl)oxy)methyl)benzoate], the “% Parent Remaining” value in series [1] was found to be 19%.

On to `CC(OCCF)c1ccc(COc2cnn(C(C)(C)C)c(=O)c2Cl)cc1` (centres unmarked) [Example 16, 2-(tert-butyl)-4-chloro-5-((4-(1-(2-fluoroethoxyl)ethyl)benzyl)oxy)pyridazin-3(2H)-one], for which, in series [1], the “% Parent Remaining” value stood at 20%.

Regarding `[2H]C([2H])(OCCF)c1ccc(COc2cnn(C(C)(C)C)c(=O)c2Cl)cc1` [Example 67E], in series [2], the “Blood, imaging agent distribution at 15 min” value (shortened to “Blood … at 15 min”) was determined as 0.17 ± 0.02 % ID/g; the “Brain, imaging agent distribution at 15 min” value (“Brain … at 15 min” below) is given as 0.97 ± 0.11 % ID/g; the “Femur, imaging agent distribution at 15 min” value (“Femur … at 15 min” for short) is on record as 0.50 ± 0.04 % ID/g; the “Heart, imaging agent distribution at 15 min” value (shortened to “Heart … at 15 min”) is on record as 4.80 ± 0.27 % ID/g. In series [2], the “Kidney, imaging agent distribution at 15 min” value (“Kidney … at 15 min” below) is 2.61 ± 0.18 % ID/g; the “Liver, imaging agent distribution at 15 min” value (shortened to “Liver … at 15 min”) was 0.66 ± 0.09 % ID/g; the “Lung, imaging agent distribution at 15 min” value (“Lung … at 15 min” below) was 0.39 ± 0.05 % ID/g; the “Muscle, imaging agent distribution at 15 min” value (“Muscle … at 15 min” for short) was found to be 0.77 ± 0.09 % ID/g. Besides, in series [2], the “Pancreas, imaging agent distribution at 15 min” value was 0.82 ± 0.07 % ID/g; the “Spleen, imaging agent distribution at 15 min” value (“Spleen … at 15 min” below) is 0.36 ± 0.08 % ID/g; the “Blood, imaging agent distribution at 60 min” value (shortened to “Blood … at 60 min”) came to 0.26 ± 0.03 % ID/g; the “Brain, imaging agent distribution at 60 min” value worked out at 0.62 ± 0.04 % ID/g. Further, in series [2], the “Femur, imaging agent distribution at 60 min” value (shortened to “Femur … at 60 min”) came out at 0.69 ± 0.05 % ID/g; the “Heart, imaging agent distribution at 60 min” value (shortened to “Heart … at 60 min”) turned out to be 3.61 ± 0.45 % ID/g; the “Kidney, imaging agent distribution at 60 min” value (shortened to “Kidney … at 60 min”) was 0.98 ± 0.04 % ID/g; the “Liver, imaging agent distribution at 60 min” value (“Liver … at 60 min” below) is 0.53 ± 0.06 % ID/g. Further, in series [2], the “Lung, imaging agent distribution at 60 min” value (“Lung … at 60 min” for short) is listed as 0.34 ± 0.03 % ID/g; the “Muscle, imaging agent distribution at 60 min” value (“Muscle … at 60 min” for short) stood at 0.69 ± 0.17 % ID/g; the “Pancreas, imaging agent distribution at 60 min” value was determined as 0.43 ± 0.05 % ID/g; the “Spleen, imaging agent distribution at 60 min” value (shortened to “Spleen … at 60 min”) is on record as 0.25 ± 0.01 % ID/g.

Consider `CC(C)(C)n1ncc(OCc2ccc(OCCCF)c(Cl)c2)c(Cl)c1=O` [Example 25, 2-(tert-butyl)-4-chloro-5-((3-chloro-4-(3-fluoropropoxyl)benzyl)oxy)pyridazin-3(2H)-one], for which the “% Parent Remaining” value in series [1] is listed as 71%.

Turning to `CC(C)n1ncc(OCc2ccc(COCCF)cc2)c(Cl)c1=O` [Example 67H], in series [2], the “Blood … at 15 min” value was determined as 0.45 ± 0.02 % ID/g; the “Brain … at 15 min” value was 0.43 ± 0.05 % ID/g; the “Femur … at 15 min” value worked out at 0.36 ± 0.04 % ID/g; the “Heart … at 15 min” value is listed as 1.14 ± 0.09 % ID/g. In addition, in series [2], the “Kidney … at 15 min” value worked out at 0.78 ± 0.01 % ID/g; the “Liver … at 15 min” value was determined as 0.46 ± 0.01 % ID/g; the “Lung … at 15 min” value turned out to be 0.41 ± 0.01 % ID/g; the “Muscle … at 15 min” value was found to be 0.38 ± 0.02 % ID/g. For the same molecule, in series [2], the “Pancreas, imaging agent distribution at 15 min” value amounted to 0.44 ± 0.03 % ID/g; the “Spleen … at 15 min” value is 0.34 ± 0.03 % ID/g; the “Blood … at 60 min” value stood at 0.55 ± 0.02 % ID/g; the “Brain, imaging agent distribution at 60 min” value was determined as 0.43 ± 0.02 % ID/g. In addition, in series [2], the “Femur … at 60 min” value was 0.71 ± 0.06 % ID/g; the “Heart … at 60 min” value was 0.55 ± 0.03 % ID/g; the “Kidney … at 60 min” value stood at 0.49 ± 0.03 % ID/g; the “Liver … at 60 min” value is on record as 0.40 ± 0.02 % ID/g. Also, in series [2], the “Lung … at 60 min” value came out at 0.42 ± 0.01 % ID/g; the “Muscle … at 60 min” value is 0.31 ± 0.02 % ID/g; the “Pancreas, imaging agent distribution at 60 min” value came out at 0.32 ± 0.02 % ID/g; the “Spleen … at 60 min” value was 0.35 ± 0.02 % ID/g.

In the case of `Cc1c(OCc2ccc(COCCF)cc2)cnn(C(C)(C)C)c1=O` [Example 40], the “% Parent Remaining” value in series [1] turned out to be 34%.

On to `CC(C)(C)n1ncc(OCc2ccc([Si](F)(C(C)(C)C)C(C)(C)C)cc2)c(Cl)c1=O` [Example 67N], for which, in series [2], the “Blood … at 15 min” value came out at 0.22 ± 0.04 % ID/g; the “Brain … at 15 min” value was 0.03 ± 0.00 % ID/g; the “Femur … at 15 min” value is 0.14 ± 0.02 % ID/g; the “Heart … at 15 min” value turned out to be 0.65 ± 0.09 % ID/g. Moreover, in series [2], the “Kidney … at 15 min” value was 0.51 ± 0.09 % ID/g; the “Liver … at 15 min” value was found to be 4.91 ± 0.49 % ID/g; the “Lung … at 15 min” value came to 1.31 ± 0.24 % ID/g; the “Muscle … at 15 min” value was 0.06 ± 0.00 % ID/g. Also, the “Spleen … at 15 min” value in series [2] amounted to 3.47 ± 0.80 % ID/g.

Regarding `CC(C)(C)n1ncc(OCc2ccc(OCCOCCF)cc2)c(Cl)c1=O` [Example 67B], in series [2], the “Blood … at 15 min” value was found to be 0.49 ± 0.02 % ID/g; the “Femur … at 15 min” value came out at 0.80 ± 0.12 % ID/g; the “Heart … at 15 min” value was determined as 1.66 ± 0.06 % ID/g; the “Kidney … at 15 min” value was found to be 2.25 ± 0.05 % ID/g. In series [2], the “Liver … at 15 min” value is 2.33 ± 0.09 % ID/g; the “Lung … at 15 min” value amounted to 0.49 ± 0.04 % ID/g; the “Muscle … at 15 min” value came out at 0.19 ± 0.00 % ID/g; the “Spleen … at 15 min” value was found to be 0.41 ± 0.01 % ID/g. For the same molecule, in series [2], the “Blood … at 60 min” value is 0.26 ± 0.04 % ID/g; the “Femur … at 60 min” value turned out to be 0.78 ± 0.22 % ID/g; the “Heart … at 60 min” value is listed as 1.58 ± 0.13 % ID/g; the “Kidney … at 60 min” value is given as 1.17 ± 0.20 % ID/g. Further, in series [2], the “Liver … at 60 min” value was found to be 1.34 ± 0.22 % ID/g; the “Lung … at 60 min” value was 0.27 ± 0.03 % ID/g; the “Muscle … at 60 min” value was 0.15 ± 0.04 % ID/g; the “Spleen … at 60 min” value is reported as 0.20 ± 0.04 % ID/g.
